Assay: Absorbance and fluorescence measurements (excitation maximum, emission maximum, quantum yield vs coumarin 151)
Type: physicochemical
Parameters: key to Quantum Yield: fraction relative to coumarin 151 in ethanol standard
Settings: for λex: absorbance/excitation maximum; for λex / Quantum Yield / λem: measurements run with methanol; for Quantum Yield: coumarin 151 in ethanol as standard; for Quantum Yield / λem: 2.5 mm slit width; for λem: emission maximum
Description: All reagents and solvents were acquired from commercially available suppliers and used without further purification. Methanol(dried on molecular sieves-Acroseal) was obtained from Acros. […] 1H and 13C NMR spectra were obtained on a Bruker NMR spectrometer at 500/400 and 125/100 MHz respectively. The data is reported as follows: chemical shift in ppm (δ), multiplicity (s=singlet, d=doublet, dd=doublet of doublets, t=triplet, dt=doublet of triplets, td=triplet of doublets, q=quartet, p=pentet, m=multiplet). Coupling constants are reported in Hertz (Hz) and were automatically generated using known NMR analyzer software (MestReNova), these were then subsequently curated. High-resolution mass spectra were obtained using the positive ESI method for all the compounds, obtained in an Ion Cyclotron Resonance (ICR) spectrometer. Absorbance spectra were obtained using an Agilent 8453 UV-visible spectroscopy system. Fluorescence was measured on a Varian (Agilent) Cary Eclipse Fluorimeter. Quantum yield measurements were calculated and reported using coumarin 151 in ethanol as a standard.^1 Fluorescence scans were obtained using a 2.5 mm slit width unless otherwise noted.
The fluorescence was also measured in different solvents to examine the solvent effects.

Row | Compound | λex [nm] | Quantum Yield | λem [nm] | fluorescence (observation in words)
1 | COc1cc(-c2nc3c(nc4ccccn43)c3cc(OC)c(OC)c(OC)c23)cc(OC)c1OC [Compound 16c, 2,3,4-trimethoxy-5-(3,4,5-trimethoxyphenyl)pyrido[2′,1′:2,3]imidazo[4,5-c]isoquinoline] | 367 | 0.01 | 428 | –
2 | Cc1cc(C)cc(-c2nc3ccccn3c2N)c1 [Compound 101, 2-(3,5-dimethylphenyl)imidazo[1,2-a]pyridin-3-amine] | 343 | 0.28 | 474 | –
3 | COc1ccc(/C=C/c2nc3nc(-c4ccc(OC)cc4)c(/N=C/c4ccc(OC)cc4)n3nc2C)cc1 [Compound 60, (E)-1-(4-methoxyphenyl)-N-(6-(4-methoxyphenyl)-3-((E)-4-methoxystyryl)-2-methylimidazo[1,2-b][1,2,4]triazin-7-yl)methanimine] | 563 | 0.19 | 609 | –
4 | COC(=O)c1ccn2c(N)c(-c3ccc(N(c4ccccc4)c4ccccc4)cc3)nc2c1 [Compound 10an, methyl 3-amino-2-(4-(diphenylamino)phenyl)imidazo[1,2-a]pyridine-7-carboxylate] | 430 | 0.44 | 529 | –
5 | (E)-5-(3,5-dimethoxyphenyl)-10-(3,5-dimethoxystyryl)-2,4-dimethoxy-9-methyl-[1,2,4]triazino[3′, 2′: 2,3]imidazo[4,5-c]isoquinolines [Compound 79] | 498 | 0.18 | 608 | –
6 | COc1cc(/C=C/c2nc3nc(-c4cc(OC)cc(OC)c4)c(/N=C/c4cc(OC)cc(OC)c4)n3nc2C)cc(OC)c1 [Compound 62, (E)-1-(3,5-dimethoxyphenyl)-N-(6-(3,5-dimethoxyphenyl)-3-((E)-3,5-dimethoxystyryl)-2-methylimidazo[1,2-b][1,2,4]triazin-7-yl)methanimine] | 506 | 0.10 | 589 | –
7 | Cc1nn2c(NC(C)(C)C)c(-c3cccs3)nc2nc1/C=C/c1cccs1 [Compound 47, (E)-N-(tert-butyl)-2-methyl-6-(thiophen-2-yl)-3-(2-(thiophen-2-yl)vinyl)imidazo[1,2-b][1,2,4]triazin-7-amine] | 513 | 0.33 | 647 | –
8 | CCN(CC)c1ccc(-c2nc3cc(C(=O)OC)ccn3c2N)cc1 [Compound 10ao, methyl 3-amino-2-(4-(diethylamino)phenyl)imidazo[1,2-a]pyridine-7-carboxylate] | 432 | 0.25 | 540 | –
9 | COc1cc(OC)cc(-c2nc3ncccn3c2N)c1 [Compound 10r, 2-(3,5-dimethoxyphenyl)imidazo[1,2-a]pyrimidin-3-amine] | 371 | 0.02 | 553 | –
10 | COc1ccc(/C=C/c2nc3nc(-c4ccc(OC)cc4)c(NC(C)(C)C)n3nc2C)cc1 [Compound 44, (E)-N-(tert-butyl)-6-(4-methoxyphenyl)-3-(4-methoxystyryl)-2-methylimidazo[1,2-b][1,2,4]triazin-7-amine] | 486 | 0.27 | 643 | –
11 | COc1cc(-c2nc3cc(-c4ccncc4)ccn3c2N)cc(OC)c1OC [Compound 10ax, 7-(pyridin-4-yl)-2-(3,4,5-trimethoxyphenyl)imidazo[1,2-a]pyridin-3-amine] | 392 | 0.23 | 545 | –
12 | Cn1cccc1-c1nc2ccccn2c1N [Compound 10o, 2-(1-methyl-1H-pyrrol-2-yl)imidazo[1,2-a]pyridin-3-amine] | 349 | 0.20 | 478 | –
13 | COc1ccc(/C=C/c2nc3nc(-c4ccc(OC)cc4)c(NCc4ccccc4)n3nc2C)cc1 [Compound 76, (E)-N-benzyl-6-(4-methoxyphenyl)-3-(4-methoxystyryl)-2-methylimidazo[1,2-b][1,2,4]triazin-7-amine] | 499 | 0.24 | 639 | –
14 | CCN(CC)c1ccc(-c2nc3cc(-c4ccncc4)ccn3c2N)cc1 [Compound 10ay, 2-(4-(diethylamino)phenyl)-7-(pyridin-4-yl)imidazo[1,2-a]pyridin-3-amine] | 435 | 0.06 | 581 | –
15 | COc1cc(-c2nc3c(nc4cccc(Br)n43)c3cc(OC)c(OC)c(OC)c23)cc(OC)c1OC [Compound 16h, 8-bromo-2,3,4-trimethoxy-5-(3,4,5-trimethoxyphenyl)pyrido[2′,1′:2,3]imidazo[4,5-c]isoquinoline] | 265 | 0.002 | 553 | –
16 | CCN(CC)c1ccc(-c2nc3cccnn3c2N)cc1 [Compound 10ag, 2-(4-(diethylamino)phenyl)imidazo[1,2-b]pyridazin-3-amine] | 444 | 0.06 | 572 | –
17 | COC(=O)c1cccc2nc(-c3cc(OC)cc(OC)c3)c(N)n12 [Compound 10x, methyl 3-amino-2-(3,5-dimethoxyphenyl)imidazo[1,2-a]pyridine-5-carboxylate] | 400 | – | – | quenched fluorescence altogether
18 | Cc1nn2c(NCc3ccccc3)c(-c3ccccc3)nc2nc1/C=C/c1ccccc1 [Compound 74, (E)-N-benzyl-2-methyl-6-phenyl-3-styrylimidazo[1,2-b][1,2,4]triazin-7-amine] | 498 | 0.24 | 636 | –
19 | Cc1nn2c(NC(C)(C)C)c(-c3ccc([N+](=O)[O-])cc3)nc2nc1/C=C/c1ccc([N+](=O)[O-])cc1 [Compound 45, (E)-N-(tert-butyl)-2-methyl-6-(4-nitrophenyl)-3-(4-nitrostyryl)imidazo[1,2-b][1,2,4]triazin-7-amine] | 505 | 0.11 | 655 | –
20 | COc1ccc(-c2nc3ccc(N4CCCCC4)cn3c2N)cc1 [Compound 10as, 2-(4-methoxyphenyl)-6-(piperidin-1-yl)imidazo[1,2-a]pyridin-3-amine] | 341 | 0.07 | 479 | –
21 | N#Cc1ccc(-c2nc3ccc(N4CCCCC4)cn3c2N)cc1 [Compound 10av, 4-(3-amino-6-(piperidin-1-yl)imidazo[1,2-a]pyridin-2-yl)benzonitrile] | 375 | 0.03 | 482 | –
22 | Nc1c(-c2ccc([N+](=O)[O-])cc2)nc2ccc(N3CCCCC3)cn12 [Compound 10aw, 2-(4-nitrophenyl)-6-(piperidin-1-yl)imidazo[1,2-a]pyridin-3-amine] | 390 | – | – | –
23 | COc1ccc(-c2nc3cccnn3c2N)cc1 [Compound 10ac, 2-(4-methoxyphenyl)imidazo[1,2-b]pyridazin-3-amine] | 435 | 0.03 | 543 | –
24 | Nc1c(-c2ccc3ccccc3c2)nc2ccccn12 [Compound 10e, 2-(naphthalen-2-yl)imidazo[1,2-a]pyridin-3-amine] | 345 | 0.28 | 475 | –
25 | COc1cccc(-c2nc3c(nc4ccccn43)c3c(OC)c(OC)ccc23)c1OC [Compound 16b, 5-(2,3-dimethoxyphenyl)-1,2-dimethoxypyrido[2′,1′:2,3]imidazo[4,5-c]isoquinoline] | 366 | 0.34 | 418 | –
26 | Nc1c(-c2ccc3ccccc3c2)nc2cccnn12 [Compound 10ab, 2-(naphthalen-2-yl)imidazo[1,2-b]pyridazin-3-amine] | 438 | 0.04 | 543 | –
27 | Cc1nn2c(/N=C/c3ccc4ccccc4c3)c(-c3ccc4ccccc4c3)nc2nc1/C=C/c1ccc2ccccc2c1 [Compound 59, (E)-N-(2-methyl-6-(naphthalen-2-yl)-3-((E)-2-(naphthalen-2-yl)vinyl)imidazo[1,2-b][1,2,4]triazin-7-yl)-1-(naphthalen-2-yl)methanimine] | 526 | 0.04 | 601 | –
28 | COc1cccc(/C=N/c2c(-c3cccc(OC)c3)c(C#N)c3ccccn23)c1 [Compound 14a, (E)-3-((3-methoxybenzylidene)amino)-2-(3-methoxyphenyl)indolizine-1-carbonitrile] | – | – | – | quenched fluorescence
29 | COc1cc(-c2nc3c(nc4ncccn43)c3cc(OC)c(OC)c(OC)c23)cc(OC)c1OC [Compound 16g, 2,3,4-trimethoxy-5-(3,4,5-trimethoxyphenyl)pyrimido[2′,1′:2,3]imidazo[4,5-c]isoquinoline] | 296 | 0.07 | 510 | –
30 | Cc1nn2c(/N=C/c3ccccc3)c(-c3ccccc3)nc2nc1/C=C/c1ccccc1 [Compound 58, (E)-N-(2-methyl-6-phenyl-3-((E)-styryl)imidazo[1,2-b][1,2,4]triazin-7-yl)-1-phenylmethanimine] | 510 | 0.04 | 601 | –

Reference: patent US20260071117A1, “FUNABLE FLUORESCENT COMPOUNDS AND USES THEREOF” (Arizona Board of Regents on Behalf of the University of …, priority 2021, published 2026)
